Measurements from the CheMixHub viscosity set.

Experiment: xn = mol fraction of the nth substance listed

CCC(C)=O + CCCCCC
298 K, 101.33 kPa
Conditions | viscosity [mPa·s]
x1 = 0.055 | 0.3018
x1 = 0.2337 | 0.3032
x1 = 0.2985 | 0.3054
x1 = 0.4168 | 0.3122
x1 = 0.5063 | 0.3211
x1 = 0.6043 | 0.3277
x1 = 0.6943 | 0.3371
x1 = 0.8004 | 0.3496
x1 = 0.9053 | 0.3647

CCOC(=O)C(C)Br (stereo unspecified) + CCCCCC
303.15 K, 101 kPa
Conditions | viscosity [mPa·s]
x1 = 0.1996 | 0.372
x1 = 0.4039 | 0.5117
x1 = 0.5022 | 0.5973
x1 = 0.5991 | 0.7048
x1 = 0.7961 | 1.012

COC(C)=O + CCCCCC
Conditions | viscosity [mPa·s]
298.15 K, 101 kPa, x1 = 0.0412 | 0.29
298.15 K, 101 kPa, x1 = 0.1497 | 0.289
298.15 K, 101 kPa, x1 = 0.2521 | 0.291
298.15 K, 101 kPa, x1 = 0.3502 | 0.295
298.15 K, 101 kPa, x1 = 0.4406 | 0.3
298.15 K, 101 kPa, x1 = 0.4839 | 0.303
298.15 K, 101 kPa, x1 = 0.5505 | 0.309
298.15 K, 101 kPa, x1 = 0.6499 | 0.32
298.15 K, 101 kPa, x1 = 0.7508 | 0.334
298.15 K, 101 kPa, x1 = 0.8488 | 0.351
298.15 K, 101 kPa, x1 = 0.941 | 0.37
298.15 K, 101.3 kPa, x1 = 0.1056 | 0.2969
298.15 K, 101.3 kPa, x1 = 0.2943 | 0.2941
298.15 K, 101.3 kPa, x1 = 0.4514 | 0.2996
298.15 K, 101.3 kPa, x1 = 0.5616 | 0.3071
298.15 K, 101.3 kPa, x1 = 0.6895 | 0.3189
298.15 K, 101.3 kPa, x1 = 0.7175 | 0.3223
298.15 K, 101.3 kPa, x1 = 0.8224 | 0.342
298.15 K, 101.3 kPa, x1 = 0.9171 | 0.365
303.15 K, 101.3 kPa, x1 = 0.1069 | 0.276
303.15 K, 101.3 kPa, x1 = 0.204 | 0.2755
303.15 K, 101.3 kPa, x1 = 0.306 | 0.2772
303.15 K, 101.3 kPa, x1 = 0.406 | 0.2809
303.15 K, 101.3 kPa, x1 = 0.4998 | 0.2857
303.15 K, 101.3 kPa, x1 = 0.602 | 0.2937
303.15 K, 101.3 kPa, x1 = 0.6984 | 0.3048
303.15 K, 101.3 kPa, x1 = 0.8014 | 0.3165
303.15 K, 101.3 kPa, x1 = 0.8998 | 0.3298
308.15 K, 101 kPa, x1 = 0.0412 | 0.272
308.15 K, 101 kPa, x1 = 0.1497 | 0.271
308.15 K, 101 kPa, x1 = 0.2521 | 0.273
308.15 K, 101 kPa, x1 = 0.3502 | 0.276
308.15 K, 101 kPa, x1 = 0.4406 | 0.28
308.15 K, 101 kPa, x1 = 0.4839 | 0.283
308.15 K, 101 kPa, x1 = 0.5505 | 0.288
308.15 K, 101 kPa, x1 = 0.6499 | 0.297
308.15 K, 101 kPa, x1 = 0.7508 | 0.309
308.15 K, 101 kPa, x1 = 0.8488 | 0.323
308.15 K, 101 kPa, x1 = 0.941 | 0.339

CCC(C)=O + CCCCCCC
298 K, 101.33 kPa
Conditions | viscosity [mPa·s]
x2 = 0.1271 | 0.3686
x2 = 0.2092 | 0.3655
x2 = 0.3055 | 0.3637
x2 = 0.4593 | 0.3646
x2 = 0.5955 | 0.3649
x2 = 0.7044 | 0.3677
x2 = 0.8014 | 0.3721
x2 = 0.9011 | 0.3789
